From patent publication EP3807270B1, “NOVEL HETEROARYL HETEROCYCLYL COMPOUNDS FOR THE TREATMENT OF AUTOIMMUNE DISEASE” (F. Hoffmann-La Roche AG, priority 2018, dated 2019)
pIC50: −log10 of the molar value.

Biological target: T1, hTLR9 (Homo sapiens, UniProt Q9NR96)
T1 sequence (Q9NR96 26-1032): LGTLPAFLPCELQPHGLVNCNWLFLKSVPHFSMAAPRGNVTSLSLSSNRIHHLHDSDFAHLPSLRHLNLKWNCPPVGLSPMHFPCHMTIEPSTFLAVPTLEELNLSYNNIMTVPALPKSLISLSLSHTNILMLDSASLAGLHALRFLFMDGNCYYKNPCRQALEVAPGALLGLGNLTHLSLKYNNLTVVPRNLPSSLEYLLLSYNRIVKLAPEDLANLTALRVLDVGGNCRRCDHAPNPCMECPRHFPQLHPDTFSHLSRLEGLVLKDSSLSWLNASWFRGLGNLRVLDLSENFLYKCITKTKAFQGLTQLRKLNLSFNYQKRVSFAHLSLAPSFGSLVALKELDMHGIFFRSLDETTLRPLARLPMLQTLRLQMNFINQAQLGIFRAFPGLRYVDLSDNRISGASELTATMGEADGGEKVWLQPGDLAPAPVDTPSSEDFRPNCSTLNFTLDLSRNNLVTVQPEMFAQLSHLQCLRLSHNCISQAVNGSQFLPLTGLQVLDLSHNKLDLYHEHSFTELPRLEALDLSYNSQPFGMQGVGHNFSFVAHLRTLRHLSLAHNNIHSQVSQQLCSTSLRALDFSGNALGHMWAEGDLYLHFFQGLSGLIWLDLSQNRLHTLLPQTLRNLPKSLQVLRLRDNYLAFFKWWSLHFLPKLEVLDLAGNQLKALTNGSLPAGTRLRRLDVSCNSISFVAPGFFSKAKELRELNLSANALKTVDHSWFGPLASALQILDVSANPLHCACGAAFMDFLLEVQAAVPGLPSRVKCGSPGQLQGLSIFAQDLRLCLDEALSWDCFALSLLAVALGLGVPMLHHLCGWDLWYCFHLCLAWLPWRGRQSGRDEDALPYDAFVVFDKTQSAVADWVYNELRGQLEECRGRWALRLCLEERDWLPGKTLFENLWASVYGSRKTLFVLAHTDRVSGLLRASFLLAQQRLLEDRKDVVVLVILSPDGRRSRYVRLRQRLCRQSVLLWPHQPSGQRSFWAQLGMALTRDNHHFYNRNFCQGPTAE
Test: HEK293-Blue-hTLR-9 cells assay (SEAP reporter, ODN2006 stimulation)
Type: cell-based
Parameters: host or cells: HEK293 (HEK-Blue)
Details: HEK293-Blue-hTLR9 cells, ODN2006, 20 hrs; read-out: HEK/hTLR9 IC50
Procedure, shortened: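 HEK293-Blue-hTLR9 cells (250,000-450,000 cells/mL) in DMEM with 10% FBS were treated with serially diluted compound (1% DMSO final) plus ODN2006 for 20 hrs at 37 °C. Supernatant SEAP activity was measured with QUANTI-Blue substrate for 2 hrs at 37 °C, reading absorbance at 620-655 nm.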

SMILES | pIC50
C[C@@H]1CN(c2ccc(C#N)c3ncccc23)C[C@H](CN2CC3(C2)CN(c2cnc4c(c2)CNCC4)CCO3)O1 [Example 47, 5-[(2R,6S)-2-methyl-6-[[8-(5,6,7,8-tetrahydro-1,6-naphthyridin-3-yl)-5-oxa-2,8-diazaspiro[3.5]nonan-2-yl]methyl]morpholin-4-yl]quinoline-8-carbonitrile] | 7.14
C[C@@H]1CN(c2ccc(C#N)c3ncccc23)C[C@H](CN2CC3(C2)CN(c2cc4c(cn2)CCNC4)CCO3)O1 [Example 48, 5-[(2R,6S)-2-methyl-6-[[8-(5,6,7,8-tetrahydro-2,6-naphthyridin-3-yl)-5-oxa-2,8-diazaspiro[3.5]nonan-2-yl]methyl]morpholin-4-yl]quinoline-8-carbonitrile] | 7.25
C[C@@H]1CN(c2ccc(C#N)c3ncccc23)C[C@H](CN2CC3(C2)CN(c2ccc4c(n2)CCNC4)CCO3)O1 [Example 49, 5-[(2R,6S)-2-methyl-6-[[8-(5,6,7,8-tetrahydro-1,6-naphthyridin-2-yl)-5-oxa-2,8-diazaspiro[3.5]nonan-2-yl]methyl]morpholin-4-yl]quinoline-8-carbonitrile] | 7.32
C[C@@H]1CN(c2ccc(C#N)c3ncccc23)C[C@H](CN2CC3(C2)CN(c2cnc4c(n2)CCNC4)CCO3)O1 [Example 50, 5-[(2R,6S)-2-methyl-6-[[8-(5,6,7,8-tetrahydropyrido[3,4-b]pyrazin-2-yl)-5-oxa-2,8-diazaspiro [3.5]nonan-2-yl]methyl]morpholin-4-yl] quinoline-8-carbonitrile] | 7.16
C[C@@H]1CN(c2ccc(C#N)c3ncccc23)C[C@H](CN2CC3(C2)CN(c2ncc4c(n2)CCNC4)CCO3)O1 [Example 51, 5-[(2R,6S)-2-methyl-6-[[8-(5,6,7,8-tetrahydropyrido[4,3-d]pyrimidin-2-yl)-5-oxa-2,8-diazaspiro[3.5]nonan-2-yl]methyl]morpholin-4-yl]quinoline-8-carbonitrile] | 6.87
C[C@@H]1CN(c2ccc(C#N)c3ncccc23)C[C@H](CN2C[C@@H]3[C@@H](C2)OCCN3c2cnc3c(c2)CCNC3)O1 [Example 52, 5-[(2S,6R)-2-[[(4aR,7aR)-4-(5,6,7,8-tetrahydro-1,7-naphthyridin-3-yl)-2,3,4a,5,7,7a-hexahydropyrrolo[3,4-b][1,4]oxazin-6-yl]methyl]-6-methylmorpholin-4-yl]quinoline-8-carbonitrile] | 7.36
C[C@@H]1CN(c2ccc(C#N)c3ncccc23)C[C@H](CN2CCN(c3cnc4c(c3)CNCC4)C(C)(C)C2)O1 [Example 56, 5-[(2S,6R)-2-[[3,3-dimethyl-4-(5,6,7,8-tetrahydro-1,6-naphthyridin-3-yl)piperazin-1-yl]methyl]-6-methyl-morpholin-4-yl]quinoline-8-carbonitrile] | 6.77
C[C@@H]1CN(c2ccc(C#N)c3ncccc23)C[C@H](CN2CCC(Nc3ncc4c(n3)CCNC4)C2)O1 (stereo partly drawn) [Example 57, 5-[(2R,6S)-2-methyl-6-[[3-(5,6,7,8-tetrahydropyrido [4,3-d]pyrimidin-2-ylamino)pyrrolidin-1-yl]methyl]morpholin-4-yl] quinoline-8-carbonitrile] | 7.44
COC1CNCc2ccc(N3CCN(C[C@H]4CN(c5ccc(C#N)c6ncccc56)C[C@@H](C)O4)CC3)cc21 (stereo partly drawn) [Example 58, 5-[(2S,6R)-2-[[4-(4-methoxy-1,2,3,4-tetrahydroisoquinolin-6-yl)piperazin-1-yl]methyl]-6-methyl-morpholin-4-yl]quinoline-8-carbonitrile] | 7.04
C[C@@H]1CN(c2ccc(C#N)c3ncccc23)C[C@H](CN2CCN(c3ccc4c(c3)C(O)CN(C)C4)CC2)O1 (stereo partly drawn) [Example 59, 5-[(2S,6R)-2-[[4-(4-hydroxy-2-methyl-3,4-dihydro-1H-isoquinolin-6-yl)piperazin-1-yl]methyl]-6-methyl-morpholin-4-yl]quinoline-8-carbonitrile] | 6.88
Cc1nc2c(nc1N1CCN(C[C@H]3CN(c4ccc(C#N)c5ncccc45)C[C@@H](C)O3)CC1)CCNC2 [Example 60, 5-[(2R,6S)-2-methyl-6-[[4-(3-methyl-5,6,7,8-tetrahydropyrido[3,4-b]pyrazin-2-yl)piperazin-1-yl]methyl]morpholin-4-yl]quinoline-8-carbonitrile] | 6.81
C[C@@H]1CN(c2ccc(C#N)c3ncccc23)C[C@H](CN2CCN(c3ncnc4c3CNCC4)CC2)O1 [Example 61, 5-[(2R,6S)-2-methyl-6-[[4-(5,6,7,8-tetrahydropyrido[4,3-d]pyrimidin-4-yl)piperazin-1-yl]methyl]morpholin-4-yl]quinoline-8-carbonitrile] | 6.64
C[C@@H]1CN(c2ccc(C#N)c3ncccc23)C[C@H](CN2CCN(c3nccc4c3CCNC4)CC2)O1 [Example 62, 5-[(2R,6S)-2-methyl-6-[[4-(5,6,7,8-tetrahydro-2,6-naphthyridin-1-yl)piperazin-1-yl]methyl]morpholin-4-yl]quinoline-8-carbonitrile] | 6.82
C[C@@H]1CN(c2ccc(C#N)c3ncccc23)C[C@H](CN2CCN(c3ccc4c(n3)CNCC4)CC2)O1 [Example 69, 5-[(2R,6S)-2-methyl-6-[[4-(5,6,7,8-tetrahydro-1,7-naphthyridin-2-yl)piperazin-1-yl]methyl]morpholin-4-yl]quinoline-8-carbonitrile] | 7.08
C[C@@H]1CN(c2ccc(C#N)c3nccnc23)C[C@H](CN2CCN(c3cc4c(cn3)CCNC4)CC2)O1 [Example 80, 8-[(2R,6S)-2-methyl-6-[[4-(5,6,7,8-tetrahydro-2,6-naphthyridin-3-yl)piperazin-1-yl]methyl]morpholin-4-yl]quinoxaline-5-carbonitrile] | 7.00
COc1ccc(N2CCN(C[C@H]3CN(c4ccc(C#N)c5ncccc45)C[C@@H](C)O3)CC2)cc1 [Example R1, 5-[(2S,6R)-2-[[4-(4-methoxyphenyl)piperazin-1-yl]methyl]-6-methyl-morpholin-4-yl]quinoline-8-carbonitrile, reference compound] | 5.18
C[C@@H]1CN(c2ccc(C#N)c3ncccc23)C[C@H](CN2CCN(c3ccc(Cl)cc3)CC2)O1 [Example R2, 5-[(2S,6R)-2-[[4-(4-chlorophenyl)piperazin-1-yl]methyl]-6-methyl-morpholin-4-yl]quinoline-8-carbonitrile, reference compound] | 5.15
